Data published in paper PMC8836179, “Transport Turnover Rates for Human OCT2 and MATE1 Expressed in Chinese Hamster Ovary Cells” (International Journal of Molecular Sciences, 2022).
“And” between values parts separate entries of the source, which are not always exact repeats. Equal values may be shown once.

Tests used:
hMATE1 = target: T1, hMATE1 (Homo sapiens, UniProt Q96FL8); experiment: MATE1-mediated substrate uptake kinetics and turnover rate in stably expressing CHO cells; format: in vitro ADME; conditions: for Kt (Ktapp, apparent Michaelis constant) / Jmax (maximum rate of mediated substrate transport): CHO cells stably expressing MATE1, 60-s uptakes, outwardly-directed H+ gradient (ammonia pulse), mean ± SD; for TOR (turnover rate): Jmax divided by cell surface MATE1 abundance (21.9 ± 18.1 fmol cm^−2), CHO cells
T1 construct: expressed in transfected cells; vector pcDNA5/FRT/V5-His TOPO
T1 sequence (Q96FL8 1-570): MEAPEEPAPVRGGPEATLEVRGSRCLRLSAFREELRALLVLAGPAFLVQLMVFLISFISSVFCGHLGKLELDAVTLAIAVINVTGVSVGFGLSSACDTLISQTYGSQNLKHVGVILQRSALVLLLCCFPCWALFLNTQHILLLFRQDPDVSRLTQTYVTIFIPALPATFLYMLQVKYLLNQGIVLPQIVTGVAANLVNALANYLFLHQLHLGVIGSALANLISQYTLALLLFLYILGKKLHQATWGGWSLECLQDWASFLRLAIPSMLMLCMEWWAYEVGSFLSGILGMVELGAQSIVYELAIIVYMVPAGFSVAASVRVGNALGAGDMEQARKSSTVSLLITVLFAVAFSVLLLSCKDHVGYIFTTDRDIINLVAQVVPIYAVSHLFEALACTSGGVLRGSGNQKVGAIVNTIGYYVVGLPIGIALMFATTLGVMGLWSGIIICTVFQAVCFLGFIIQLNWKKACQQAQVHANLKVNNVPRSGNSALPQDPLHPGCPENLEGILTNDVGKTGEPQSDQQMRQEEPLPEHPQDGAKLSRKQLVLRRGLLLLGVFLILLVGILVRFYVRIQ
Method: (§1) The calculation of TOR values involved dividing the maximal rates of substrate transport (Jmax) by the number of cell-surface-expressed transporters (Table 1).
(§2) Chinese hamster ovary (CHO) cells with a single integrated Flp-In recombination site were obtained from Invitrogen (Carlsbad, CA, USA). […] Cells were passaged every 3–4 days and maintained at 37 °C in a humidified environment with 5% CO2. Continued expression of MATE1 and OCT2 in these cell lines was maintained using hygromycin (200 µg/mL; Invitrogen, Carlsbad, CA) selection pressure; continued expression of the Flp-In recombination site in wild-type (WT; non-transporter expressing) CHO cells was maintained using Zeocin (100 µg/mL; Invitrogen) selection pressure. When seeded into 96-well plates (Greiner; VWR Intl., Arlington Heights, IL, USA) for transport assays, cells were grown to confluence in antibiotic-free medium.
(§3) Cells were seeded in 96 well plates with 200 µL of cell media containing 550,000 cells/mL or 275,000 cells/mL, and experiments were performed 24 or 48 h later, respectively. To begin an experiment, media was aspirated and the wells were washed for three cycles over 12 s with 300 µL of room temperature (~23 °C) Waymouth Buffer (WB; 135 mM NaCl, 13 mM HEPES, 2.5 mM CaCl2·2H2O, 1.2 mM MgCl2, 0.8 mM MgSO4·7H2O, 5 mM KCl, and 28 mM D-glucose; pH 7.4) using an automatic microplate washer (Model 405, BioTek, Winooski, VT, USA). For studies of OCT2-mediated transport, uptake was initiated by addition of 60 µL of WB containing radiolabeled substrate and other compounds, as needed. For studies of MATE1-mediated transport, the cells (MATE1-expressing and control cells) were exposed to an ammonia pulse method that we previously used to elevate cytoplasmic [H^+] to a level (~6.0 pH; [61]) that effectively saturates the cytoplasmic face of the exchanger with H^+ [51]. Briefly, cells were preincubated for 20 min (room temp) in buffer containing 20 mM NH4Cl (the first step in establishing an outwardly-directed H^+ gradient; [60]). Plates were then placed in the automatic fluid aspirator/dispenser and rinsed/aspirated three times with room temperature WB (pH 7.4), and transport was initiated by aspirating this medium and replacing it with 60 µL of an NH4Cl-free medium containing labeled substrate, thereby, establishing a trans H^+ gradient, qualitatively similar to the conditions that support MATE1-mediated transport in renal proximal tubules. For all experiments, transport buffers were added using a VIAFLO 96-well multichannel pipet (Integra Biosciences, Hudson, NH, USA). At specified time intervals, transport was terminated by rinsing with three cycles of cold WB (300 µL). Following rinsing and final aspiration, 200 µL of scintillation cocktail (Microscint 20, Perkin-Elmer, Waltham, MA, USA) was added to each well. The plates were sealed (Topseal-A, Perkin Elmer), and after sitting for at least two hours, accumulated radioactivity was determined in a six-channel multiwell scintillation counter (Wallac Trilux 1450 Microbeta, Perkin-Elmer).
(§4) The method described here is a minor modification of that described by Pelis et al..

hOCT2 = target: T2, hOCT2 (Homo sapiens, UniProt O15244); experiment: OCT2-mediated substrate uptake kinetics and turnover rate in stably expressing CHO cells; format: in vitro ADME; conditions: for Jmax (maximum rate of mediated substrate transport) / Kt (Ktapp, apparent Michaelis constant): CHO cells stably expressing OCT2, 60-s uptakes, pH 7.4, mean ± SD; for TOR (turnover rate): Jmax divided by cell surface OCT2 abundance (154 ± 70.7 fmol cm^−2), CHO cells
T2 construct: expressed in transfected cells; vector pcDNA5/FRT/V5-His TOPO
T2 sequence (O15244 1-555): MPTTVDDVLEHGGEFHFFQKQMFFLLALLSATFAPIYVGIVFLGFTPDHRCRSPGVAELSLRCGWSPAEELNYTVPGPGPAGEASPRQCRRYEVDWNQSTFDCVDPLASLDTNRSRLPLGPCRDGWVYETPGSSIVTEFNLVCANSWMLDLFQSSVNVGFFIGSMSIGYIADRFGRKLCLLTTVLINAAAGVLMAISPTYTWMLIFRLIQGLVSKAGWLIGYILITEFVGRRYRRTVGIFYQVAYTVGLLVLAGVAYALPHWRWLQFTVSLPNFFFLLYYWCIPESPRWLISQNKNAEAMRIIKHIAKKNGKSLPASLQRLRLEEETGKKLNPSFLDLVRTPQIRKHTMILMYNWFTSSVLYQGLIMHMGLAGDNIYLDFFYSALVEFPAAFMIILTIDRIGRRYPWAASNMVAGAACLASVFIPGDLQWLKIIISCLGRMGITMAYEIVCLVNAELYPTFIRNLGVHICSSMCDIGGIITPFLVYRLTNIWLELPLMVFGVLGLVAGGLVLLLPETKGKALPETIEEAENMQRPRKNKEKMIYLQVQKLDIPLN
Method: as §1, §2, §3, §4

Compound	Kt (Ktapp, apparent Michaelis constant) (hMATE1)	Kt (Ktapp, apparent Michaelis constant) (hMATE1; listed as atenolol)	Jmax (maximum rate of mediated substrate transport) (hOCT2)	Kt (Ktapp, apparent Michaelis constant) (hOCT2)	TOR (turnover rate) (hOCT2)	Jmax (maximum rate of mediated substrate transport) (hMATE1)	TOR (turnover rate) (hMATE1)	Jmax (maximum rate of mediated substrate transport) (hOCT2; listed as metformin)	Kt (Ktapp, apparent Michaelis constant) (hOCT2; listed as metformin)	Jmax (maximum rate of mediated substrate transport) (hMATE1; listed as metformin)	TOR (turnover rate) (hMATE1; listed as metformin)
CC(C)NCC(O)COc1ccc(CC(N)=O)cc1 (stereo not drawn) [Atenolol, atenolol]	354 ± 96 µM and 354 ± 95.9 µM	354 ± 96 µM	–	–	–	–	–	–	–	–	–
C[n+]1ccc(-c2ccccc2)cc1 [MPP, 1-Methyl-4-phenylpyridinium]	66 ± 6.8 µM	–	59 ± 6.6 pmol cm^−2 min^−1 and 58.5 ± 6.6 pmol cm^−2 min^−1 and 58 pmol cm^−2 min^−1 and 58.5 ± 6.6 (n = 3) pmol cm^−2 min^−1	17.5 ± 2.1 µM	7.1 ± 2.4 s⁻¹	241 ± 85 pmol cm^−2 min^−1 and 241 ± 84.9 (n = 4) pmol cm^−2 min^−1	297 ± 201 s⁻¹	–	–	–	–
CN(C)C(=N)N=C(N)N [Metformin, metformin]	664 ± 302 µM	–	509 ± 39 pmol cm^−2 min^−1 and 509 ± 39.0 (n = 2) pmol cm^−2 min^−1	427 ± 48 µM and 427 ± 48.0 µM	70 s⁻¹	1802 ± 1147 pmol cm^−2 min^−1 and 1802 ± 1147 (n = 4) pmol cm^−2 min^−1	1894 ± 1282 s⁻¹	509 ± 39 pmol cm^−2 min^−1 and 509 pmol cm^−2 min^−1	427 ± 48 µM	1802 ± 1147 pmol cm^−2 min^−1	~ 1900 s^−1
